From patent US11298431B2, “Method for labeling radioisotope radiolabeling compound and kit comprising the same for labeling radioisotope” (KOREA ATOMIC ENERGY RESEARCH INSTITUTE, priority 2018, dated 2022)

Legend:
[1] = Storage stability of the radioiodinated aldehyde in the refrigerator; format: physicochemical
Description: (§1) For synthesis of ^125I-labeled aldehyde [^125I] 5, specific radioactive analogue 4-iodo-N-(4-oxobutyl) benzamide) 5 was synthesized by coupling of 4-aminobutyraldehyde diethyl acetal with 4-iodobenzoic acid under basic conditions and a subsequent reduction under acidic conditions (Scheme 1). The radioiodination shown in 6 was achieved using [^125I] NaI and chloramines-T as oxidants (Scheme 3). The radioiodination reaction was terminated by adding an aqueous solution of sodium metabisulfite. After HPLC purification of the crude product, [^125I] 5 was obtained with high radiochemical yield (72±6%, n=5). The specific activity was 45 GBq/μmol and the chemical purity was more than 99%. In the HPLC chromatogram of the crude mixture, the main product [^125I] 5 was clearly shown at 22.6 minutes (FIG. 1). Radio-labeling reactions were performed by using various amounts of radioisotopes (100 μCi to 1 mCi), but the radiochemical results were consistent. The radioactive iodine compound [^125I] […] The compound [^125I]

[2] = In vitro stability in various media at 37° C. (radio-HPLC); format: in vitro ADME
Description: as §1

With `O=CCCCNC(=O)c1ccc([125I])cc1` [[^125I] 5] the hydrolysis ([1]; compared with active ester-based prosthetic groups (Bolton-Hunter-reagent)) was “not hydrolyzed”, the “time found to be stable in the refrigerator” value ([1]; refrigerator (4° C.)) was “more than 6 months” and the “time shown to be stable in medium” value ([2]; PBS) was ≥ 24 h. The “time shown to be stable in medium” value ([2]; mouse serum) was ≥ 24 h and the “time shown to be stable in medium” value ([2]; saline) was ≥ 24 h.
